Assay results as given in US5612350A, “Macrocyclic immunomodulators with novel cyclohexyl ring replacements” (Abbott Laboratories, priority 1995, dated 1997).

Tested on: human mixed lymphocyte reaction (MLR)
Test: human mixed lymphocyte reaction (MLR) assay, immunosuppressant activity
Type: cell-based
Settings: for IC50: Table 1
Description: In Vitro Assay of Biological Activity
The immunosuppressant activity of the compounds of the present invention was determined using the human mixed lymphocyte reaction (MLR) assay described by. T. Kinoet al. in Transplantation Proceedings, XIX(5):36-39, Suppl. 6 (1987).

Row | SMILES | IC50 | inhibition at 1 µM (Table 1, at 1 × 10^-6 (M), read-out: 25% at 1 × 10^-6 (in the IC50 (M) column))
1 | CC[C@@H]1/C=C(\C)C[C@H](C)C[C@H](OC)[C@H]2O[C@@](O)(C(=O)C(=O)N3CCCC[C@H]3C(=O)O[C@H](/C(C)=C/[C@H]3CCOC(=O)CC3)[C@H](C)[C@@H](O)CC1=O)[C@H](C)C[C@@H]2OC [Example 11] | 1.1 nM | 
2 | CC[C@@H]1/C=C(\C)C[C@H](C)C[C@H](OC)[C@H]2O[C@@](O)(C(=O)C(=O)N3CCCC[C@H]3C(=O)O[C@H](/C(C)=C/C3CCN(C(=O)N4CCOCC4)CC3)[C@H](C)[C@@H](O)CC1=O)[C@H](C)C[C@@H]2OC [Example 56] | 2.6 nM | 
3 | CC[C@@H]1/C=C(\C)C[C@H](C)C[C@H](OC)[C@H]2O[C@@](O)(C(=O)C(=O)N3CCCC[C@H]3C(=O)O[C@H](/C(C)=C/[C@@H](CCO)CCC(=O)NCCO)[C@H](C)[C@@H](O)CC1=O)[C@H](C)C[C@@H]2OC [Example 9] | 65 nM | 
4 | CCCNC(=O)CC[C@@H](/C=C(\C)[C@H]1OC(=O)[C@@H]2CCCCN2C(=O)C(=O)[C@]2(O)O[C@H]([C@@H](OC)C[C@@H](C)C/C(C)=C/[C@@H](CC)C(=O)C[C@H](O)[C@H]1C)[C@@H](OC)C[C@H]2C)CCO [Example 13] | 388 nM | 
5 | CC[C@@H]1/C=C(\C)C[C@H](C)C[C@H](OC)[C@H]2O[C@@](O)(C(=O)C(=O)N3CCCC[C@H]3C(=O)O[C@H](/C(C)=C/[C@@H]3CCNC(=O)OCC3)[C@H](C)[C@@H](O)CC1=O)[C@H](C)C[C@@H]2OC [Example 37] | 0.57 nM | 
6 | CC[C@@H]1/C=C(\C)C[C@H](C)C[C@H](OC)[C@H]2O[C@@](O)(C(=O)C(=O)N3CCCC[C@H]3C(=O)O[C@H](/C(C)=C/[C@@H](CCO)CCC(=O)NCc3ccccc3)[C@H](C)[C@@H](O)CC1=O)[C@H](C)C[C@@H]2OC [Example 7] | 23 nM | 
7 | CC[C@@H]1/C=C(\C)C[C@H](C)C[C@H](OC)[C@H]2O[C@@](O)(C(=O)C(=O)N3CCCC[C@H]3C(=O)O[C@H](/C(C)=C/[C@@H]3CCC(=O)N4CCSC4C3)[C@H](C)[C@@H](O)CC1=O)[C@H](C)C[C@@H]2OC (some centres unmarked) [Example 39] | 37 nM | 
8 | CC[C@@H]1/C=C(\C)C[C@H](C)C[C@H](OC)[C@H]2O[C@@](O)(C(=O)C(=O)N3CCCC[C@H]3C(=O)O[C@H](/C(C)=C/[C@@H](CCO)CCC(=O)N3CCOCC3)[C@H](C)[C@@H](O)CC1=O)[C@H](C)C[C@@H]2OC [Example 15] |  | 25%
